Experimental data taken from ChEMBL document CHEMBL1201862, “PubChem BioAssay data set” (2004).
Several values for one entry are separate records, joined by “and”; a condition that tells them apart may be missing. Equal entries are not always repeated.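 Cultured in 96-well plates, cells were exposed to test compound for 48 hours across five concentrations. At the GI50, growth is halved.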 Activity calls are given as the source filed them. No stated cut-off is given here; in the data, active = GI50 up to about 1.1 µM and inactive = higher.

What was measured:
Assay in all cases: NCI anticancer screen, dose series, 48 h
HCT-15 = system: HCT-15
EKVX = system: EKVX
CAKI-1 = system: CAKI-1
OVCAR-8 = system: OVCAR-8
M14 = system: M14
MDA-MB-231 = system: MDA-MB-231
LOX IMVI = system: LOX IMVI
SK-OV-3 = system: SK-OV-3
IGROV-1 = system: IGROV-1
UACC-257 = system: UACC-257
NCI/ADR-RES = system: NCI/ADR-RES
UACC-62 = system: UACC-62
MCF7 = system: MCF7
NCI-H460 = system: NCI-H460
786-0 = system: 786-0
HL-60 = system: HL-60
SR = system: SR
A549 = system: A549
CCRF-CEM = system: CCRF-CEM
SNB-75 = system: SNB-75

Structure (SMILES) | GI50 (HCT-15) [µM] | GI50 (EKVX) | GI50 (CAKI-1) | GI50 (OVCAR-8) | GI50 (M14) | GI50 (MDA-MB-231) | GI50 (LOX IMVI) | GI50 (SK-OV-3) | GI50 (IGROV-1) | GI50 (UACC-257) | GI50 (NCI/ADR-RES) | GI50 (UACC-62) | GI50 (MCF7) | GI50 (NCI-H460) | GI50 (786-0) | GI50 (HL-60) | GI50 (SR) | GI50 (A549) | GI50 (CCRF-CEM) | GI50 (SNB-75)
CCOC(=O)C(=CN1CCNC1=S)C(=O)OCC | > 100 | > 100 µM (inactive) | > 100 µM (inactive) | > 100 µM (inactive) | > 100 µM (inactive) | > 100 µM (inactive) | > 100 µM (inactive) | > 100 µM (inactive) | > 100 µM (inactive) | > 100 µM (inactive) | > 100 µM (inactive) | > 100 µM (inactive) | > 100 µM (inactive) | > 100 µM (inactive) | > 100 µM (inactive) | > 100 µM (inactive) | > 100 µM (inactive) | > 100 µM (inactive) | > 100 µM (inactive) | 
COC(=O)C1(C#N)C(C)(C)N=C(c2ccccc2)C12CCCCC2 (stereo unspecified) | > 100 | > 100 µM (inactive) | > 100 µM (inactive) | > 100 µM (inactive) | > 100 µM (inactive) | > 100 µM (inactive) | > 100 µM (inactive) | > 100 µM (inactive) | > 100 µM (inactive) | > 100 µM (inactive) | > 100 µM (inactive) | 76.9 µM (inactive) | > 100 µM (inactive) | > 100 µM (inactive) | > 100 µM (inactive) | 45.4 µM (inactive) | 14.7 µM (inactive) | 85.7 µM (inactive) | > 100 µM (inactive) | 
CC(=O)Oc1ccc(/C=C/C(=O)O[C@H]2CCCC[C@@H]2OC(=O)/C=C/c2ccc(OC(C)=O)c(OC(C)=O)c2)cc1OC(C)=O | 5.13 | 17.1 µM (inactive) | 5.41 µM (inactive) | 8.61 µM (inactive) | 7.14 µM (inactive) | 17 µM (inactive) | 2.49 µM (inactive) | 11.8 µM (inactive) | 4.09 µM (inactive) | 11.8 µM (inactive) | 19.2 µM (inactive) | 4.84 µM (inactive) | 13.8 µM (inactive) | 3.85 µM (inactive) | 4.57 µM (inactive) |  | 4.34 µM (inactive) | 6.87 µM (inactive) | 2.75 µM (inactive) | 9.46 µM (inactive)
Cn1cc2c(=O)n3ncn(-c4ccc(Br)cc4)c3nc2n1 | > 100 | > 100 µM (inactive) | > 100 µM (inactive) | > 100 µM (inactive) | > 100 µM (inactive) | > 100 µM (inactive) |  | > 100 µM (inactive) | > 100 µM (inactive) | > 100 µM (inactive) | > 100 µM (inactive) | > 100 µM (inactive) | > 100 µM (inactive) | > 100 µM (inactive) | > 100 µM (inactive) | > 100 µM (inactive) | > 100 µM (inactive) | > 100 µM (inactive) | > 100 µM (inactive) | > 100 µM (inactive)
C1=N\CCNCCNCC/N=C\c2ccc(cc2)OCc2cccc(n2)COc2ccc/1cc2 | > 100 | > 100 µM (inactive) | > 100 µM (inactive) | > 100 µM (inactive) | > 100 µM (inactive) | > 100 µM (inactive) |  | > 100 µM (inactive) | > 100 µM (inactive) | 88.5 µM (inactive) | 95.1 µM (inactive) | > 100 µM (inactive) | 29.8 µM (inactive) | 73.6 µM (inactive) | > 100 µM (inactive) | 67.9 µM (inactive) | 50.5 µM (inactive) | > 100 µM (inactive) | 27.6 µM (inactive) | 47.1 µM (inactive)
O=C1N/C(=N/N=C\C(O)C(O)C(O)CO)N/C1=C/c1ccc(Cl)cc1 (stereo unspecified) | 20.6 | 34.8 µM (inactive) and 26.7 µM (inactive) | 57 µM (inactive) and 47 µM (inactive) | 44.1 µM (inactive) and 27.7 µM (inactive) | 25.9 µM (inactive) | 58.5 µM (inactive) and 44.6 µM (inactive) | 40.6 µM (inactive) and 35.5 µM (inactive) | 63.5 µM (inactive) | 30.6 µM (inactive) and 32.9 µM (inactive) | > 100 µM (inactive) | 55.5 µM (inactive) and 44.5 µM (inactive) |  | 29.2 µM (inactive) | 33.9 µM (inactive) | 53.1 µM (inactive) | 35.7 µM (inactive) |  | 71.8 µM (inactive) | 25.8 µM (inactive) and 21.5 µM (inactive) | 41.5 µM (inactive) and 32.9 µM (inactive)
CCOP(=O)(OCC)/C(=C/NC(=S)c1ccncc1)C(=O)OC | > 100 | > 100 µM (inactive) | > 100 µM (inactive) | > 100 µM (inactive) | > 100 µM (inactive) | > 100 µM (inactive) | > 100 µM (inactive) | > 100 µM (inactive) | > 100 µM (inactive) | > 100 µM (inactive) | > 100 µM (inactive) | > 100 µM (inactive) | > 100 µM (inactive) | > 100 µM (inactive) | > 100 µM (inactive) | 53.5 µM (inactive) | 4.48 µM (inactive) | > 100 µM (inactive) | 20.6 µM (inactive) | 
CC[N+](C)(CC)CCN1C(=O)c2ccccc2S1(=O)=O | > 100 | > 100 µM (inactive) | > 100 µM (inactive) | > 100 µM (inactive) | > 100 µM (inactive) | > 100 µM (inactive) | > 100 µM (inactive) | > 100 µM (inactive) | > 100 µM (inactive) | > 100 µM (inactive) | > 100 µM (inactive) | > 100 µM (inactive) | > 100 µM (inactive) | > 100 µM (inactive) | > 100 µM (inactive) | > 100 µM (inactive) |  | > 100 µM (inactive) | > 100 µM (inactive) | > 100 µM (inactive)
FC(F)(F)c1ccc2nc(Sc3ccccn3)cnc2c1 | 50.5 | 49.2 µM (inactive) | 62.4 µM (inactive) | 38.8 µM (inactive) | 48 µM (inactive) | 38.4 µM (inactive) | 40.6 µM (inactive) | 33.8 µM (inactive) | 75.5 µM (inactive) | 79.3 µM (inactive) | 37.4 µM (inactive) | 29.2 µM (inactive) | 74.8 µM (inactive) | 48.4 µM (inactive) | 23.5 µM (inactive) | 4.14 µM (inactive) |  | 38.8 µM (inactive) | 2.94 µM (inactive) | 29.5 µM (inactive)
CC1=C(Nc2c(C)cc(O)cc2O)C(=O)C=c2oc3c(c21)C(C)=C(Nc1c(C)cc(O)cc1O)C(=O)C=3 | 46.6 | 47.5 µM (inactive) | > 100 µM (inactive) | 38 µM (inactive) | 28.8 µM (inactive) | 36.6 µM (inactive) |  | 45.7 µM (inactive) | 30.1 µM (inactive) | 29.8 µM (inactive) | > 100 µM (inactive) | 37.2 µM (inactive) | 26.5 µM (inactive) | 30.3 µM (inactive) | 54.1 µM (inactive) |  | 0.0313 µM (active) | 38.5 µM (inactive) |  | 25.6 µM (inactive)
CCOC(=O)C(C(=O)OCC)=C1SC(=N\c2ccccc2)/C(=N/c2ccccc2)N1c1ccccc1 | > 100 | > 100 µM (inactive) | > 100 µM (inactive) | > 100 µM (inactive) |  | > 100 µM (inactive) |  | > 100 µM (inactive) | > 100 µM (inactive) |  | > 100 µM (inactive) | 53.6 µM (inactive) | 75.3 µM (inactive) | > 100 µM (inactive) | > 100 µM (inactive) | > 100 µM (inactive) | > 100 µM (inactive) | > 100 µM (inactive) | 18.4 µM (inactive) | > 100 µM (inactive)
Cc1cc(N(C)C)c2ccccc2[n+]1CCCCCCCCCC[n+]1c(C)cc(N(C)C)c2ccccc21.[O-][Cl+3]([O-])([O-])[O-].[O-][Cl+3]([O-])([O-])[O-] | 3.81 | 1.32 µM (inactive) | 7.5 µM (inactive) | 1.07 µM (active) | 2.33 µM (inactive) | 0.491 µM (active) | 0.871 µM (active) | 0.735 µM (active) | 6.05 µM (inactive) | 0.238 µM (active) | 13.7 µM (inactive) | 0.989 µM (active) | 0.434 µM (active) | 0.348 µM (active) | 2.59 µM (inactive) | 0.275 µM (active) |  | 0.587 µM (active) | 0.577 µM (active) | 0.47 µM (active)
O=C(O)c1c(Br)c(Br)c(Br)c(Br)c1C1c2ccc(O)cc2Oc2cc(O)ccc21 | > 100 | > 100 µM (inactive) | > 100 µM (inactive) | > 100 µM (inactive) | > 100 µM (inactive) | > 100 µM (inactive) | > 100 µM (inactive) | > 100 µM (inactive) | > 100 µM (inactive) | > 100 µM (inactive) | > 100 µM (inactive) | > 100 µM (inactive) | > 100 µM (inactive) | > 100 µM (inactive) | > 100 µM (inactive) | 0.232 µM (active) |  | > 100 µM (inactive) |  | > 100 µM (inactive)
O=C(Nc1ccc(Cl)cc1)c1cc2c(cc1Cl)Sc1nccn1S2(=O)=O | 35.7 | 69 µM (inactive) | 40.7 µM (inactive) | 51.3 µM (inactive) | > 100 µM (inactive) | 43.7 µM (inactive) | > 100 µM (inactive) | 64 µM (inactive) | 60.1 µM (inactive) |  | 56.5 µM (inactive) |  | 69.3 µM (inactive) | 42.5 µM (inactive) | 29.6 µM (inactive) |  | > 100 µM (inactive) | > 100 µM (inactive) | > 100 µM (inactive) | 3.4 µM (inactive)
N#C/C(C(=S)Nc1ccccc1)=C(/N)N1CCCC1 | > 100 | > 100 µM (inactive) | 27.9 µM (inactive) | > 100 µM (inactive) | > 100 µM (inactive) | > 100 µM (inactive) | > 100 µM (inactive) |  | > 100 µM (inactive) | > 100 µM (inactive) | > 100 µM (inactive) | > 100 µM (inactive) | > 100 µM (inactive) | > 100 µM (inactive) | > 100 µM (inactive) | > 100 µM (inactive) | > 100 µM (inactive) | > 100 µM (inactive) | > 100 µM (inactive) | 
